pIC50: −log10 of the molar value.
Experiments:
[1] = molecular target: T1, PTPN2 (i.e., TC-PTP) (Homo sapiens, UniProt P17706); test: Phosphatase activity assay (DiFMUP substrate), PTPN2; assay type: biochemical; details: compounds binned ≤1 uM or >1 uM
T1 sequence (P17706 1-415): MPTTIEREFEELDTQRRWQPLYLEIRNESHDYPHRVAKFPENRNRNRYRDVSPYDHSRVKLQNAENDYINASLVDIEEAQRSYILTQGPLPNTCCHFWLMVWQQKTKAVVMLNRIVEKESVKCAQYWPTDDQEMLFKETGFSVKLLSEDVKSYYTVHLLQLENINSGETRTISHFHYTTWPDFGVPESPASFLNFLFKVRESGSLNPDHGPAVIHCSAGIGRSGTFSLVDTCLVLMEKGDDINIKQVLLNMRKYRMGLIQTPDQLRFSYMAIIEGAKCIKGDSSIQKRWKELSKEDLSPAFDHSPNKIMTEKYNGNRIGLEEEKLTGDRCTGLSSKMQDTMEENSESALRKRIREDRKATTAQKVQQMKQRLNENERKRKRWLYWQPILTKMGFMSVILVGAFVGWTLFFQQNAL
How it was run: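 RT, HEPES pH 7.5 buffer with DTT/Tween-20. 10-point inhibitor series premixed ~2 min with enzyme (PTPN2 0.025 ng/ul). Start with DiFMUP at enzyme Km (~45 μM for PTPN2). Read DiFMU ex360/em450 continuously 15–30 min; initial rate vs concentration, 4-parameter fit → IC50.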

[2] = molecular target: T2, PTPN1 (i.e., PTP1B) (Homo sapiens, UniProt P18031); test: Phosphatase activity assay (DiFMUP substrate), PTP1B; assay type: biochemical; details: compounds binned ≤1 uM or >1 uM
T2 sequence (P18031 1-435): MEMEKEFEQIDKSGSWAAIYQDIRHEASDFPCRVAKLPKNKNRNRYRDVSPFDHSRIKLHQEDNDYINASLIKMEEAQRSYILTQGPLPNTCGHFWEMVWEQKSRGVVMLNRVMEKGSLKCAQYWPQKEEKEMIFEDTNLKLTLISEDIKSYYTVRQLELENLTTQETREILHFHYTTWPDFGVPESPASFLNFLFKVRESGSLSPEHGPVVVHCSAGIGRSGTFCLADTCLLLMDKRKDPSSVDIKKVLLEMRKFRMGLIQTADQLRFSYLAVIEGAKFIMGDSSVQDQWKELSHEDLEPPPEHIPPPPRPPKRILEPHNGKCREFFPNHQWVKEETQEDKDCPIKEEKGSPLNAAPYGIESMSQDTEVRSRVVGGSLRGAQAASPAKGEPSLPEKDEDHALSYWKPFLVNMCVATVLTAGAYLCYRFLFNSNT
How it was run: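 Continuous fluorogenic readout of DiFMUP dephosphorylation at room temperature, substrate set at Km for each phosphatase (about 45 μM in the PTPN2 assay). The buffer contains 1 mM DTT and 0.001% Tween-20, pH 7.5.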

Row | SMILES | pIC50 [1] | pIC50 [2]
1 | O=C1CN(c2c(O)ccc(-c3cc(N4CCC5(COC5)C4)n[nH]3)c2F)S(=O)(=O)N1 [Compound 431, 5-(3-(3-(2-oxa-6-azaspiro[3.4]octan-6-yl)-1H-pyrazol-5-yl)-2-fluoro-6-hydroxyphenyl)-1,2,5-thiadiazolidin-3-one 1,1-dioxide] | ≥ 6.00 | ≥ 6.00
2 | Cn1nc(-c2ccc(O)c(N3CC(=O)NS3(=O)=O)c2F)cc1CCC#N [Compound 432, 3-(3-(3-(1,1-dioxido-4-oxo-1,2,5-thiadiazolidin-2-yl)-2-fluoro-4-hydroxyphenyl)-1-methyl-1H-pyrazol-5-yl)propanenitrile] | ≥ 6.00 | ≥ 6.00
3 | N#Cc1cc(F)cc(-n2cnc(-c3ccc(O)c(N4CC(=O)NS4(=O)=O)c3F)c2)c1 [Compound 433, 3-(4-(3-(1,1-dioxido-4-oxo-1,2,5-thiadiazolidin-2-yl)-2-fluoro-4-hydroxyphenyl)-1H-imidazol-1-yl)-5-fluorobenzonitrile] | ≥ 6.00 | ≥ 6.00
4 | O=C1CN(c2c(O)ccc(-c3cc(C#Cc4cccnc4)n[nH]3)c2F)S(=O)(=O)N1 [Compound 434, 5-(2-fluoro-6-hydroxy-3-(3-(pyridin-3-ylethynyl)-1H-pyrazol-5-yl)phenyl)-1,2,5-thiadiazolidin-3-one 1,1-dioxide] | ≥ 6.00 | ≥ 6.00
5 | O=C1CN(c2c(O)ccc(-c3cc(C4CC4)n(CC(F)F)n3)c2F)S(=O)(=O)N1 [Compound 435, 5-(3-(5-cyclopropyl-1-(2,2-difluoroethyl)-1H-pyrazol-3-yl)-2-fluoro-6-hydroxyphenyl)-1,2,5-thiadiazolidin-3-one 1,1-dioxide] | ≥ 6.00 | ≥ 6.00
6 | CC(C)CNCc1cc(-c2ccc(O)c(N3CC(=O)NS3(=O)=O)c2F)[nH]n1 [Compound 436, 5-(2-fluoro-6-hydroxy-3-(3-((isobutylamino)methyl)-1H-pyrazol-5-yl)phenyl)-1,2,5-thiadiazolidin-3-one 1,1-dioxide] | ≥ 6.00 | ≥ 6.00
7 | O=C1CN(c2c(O)ccc(-c3cn(-c4ccccc4F)cn3)c2F)S(=O)(=O)N1 [Compound 437, 5-(2-fluoro-3-(1-(2-fluorophenyl)-1H-imidazol-4-yl)-6-hydroxyphenyl)-1,2,5-thiadiazolidin-3-one 1,1-dioxide] | ≥ 6.00 | ≥ 6.00
8 | O=C1CN(c2c(O)ccc(-c3ccc(NS(=O)(=O)C4CC4)cc3F)c2F)S(=O)(=O)N1 [Compound 438, N-(3′-(1,1-dioxido-4-oxo-1,2,5-thiadiazolidin-2-yl)-2,2′-difluoro-4′-hydroxy-[1,1′-biphenyl]-4-yl)cyclopropanesulfonamide] | ≥ 6.00 | ≥ 6.00
9 | N#Cc1cc(-c2ccc(O)c(N3CC(=O)NS3(=O)=O)c2F)[nH]n1 [Compound 439, 5-(3-(1,1-dioxido-4-oxo-1,2,5-thiadiazolidin-2-yl)-2-fluoro-4-hydroxyphenyl)-1H-pyrazole-3-carbonitrile] | ≥ 6.00 | ≥ 6.00
10 | O=C1CN(c2c(O)ccc(-c3cn(C4CC4)nc3F)c2F)S(=O)(=O)N1 [Compound 440, 5-(3-(1-cyclopropyl-3-fluoro-1H-pyrazol-4-yl)-2-fluoro-6-hydroxyphenyl)-1,2,5-thiadiazolidin-3-one 1,1-dioxide] | ≥ 6.00 | ≥ 6.00
11 | N#CC1(c2cc(-c3ccc(O)c(N4CC(=O)NS4(=O)=O)c3F)[nH]n2)CC1 [Compound 441, 1-(5-(3-(1,1-dioxido-4-oxo-1,2,5-thiadiazolidin-2-yl)-2-fluoro-4-hydroxyphenyl)-1H-pyrazol-3-yl)cyclopropane-1-carbonitrile] | ≥ 6.00 | ≥ 6.00
12 | CN1CC2(CCC(n3cc(-c4ccc(O)c(N5CC(=O)NS5(=O)=O)c4F)cn3)C2)C1 (centres unmarked) [Compound 442, 5-(2-fluoro-6-hydroxy-3-(1-(2-methyl-2-azaspiro[3.4]octan-6-yl)-1H-pyrazol-4-yl)phenyl)-1,2,5-thiadiazolidin-3-one 1,1-dioxide] | ≥ 6.00 | ≥ 6.00
13 | COCCS(=O)(=O)Nc1ccc(-c2ccc(O)c(N3CC(=O)NS3(=O)=O)c2F)cc1 [Compound 443, N-(3′-(1,1-dioxido-4-oxo-1,2,5-thiadiazolidin-2-yl)-2′-fluoro-4′-hydroxy-[1,1′-biphenyl]-4-yl)-2-methoxyethane-1-sulfonamide] | ≥ 6.00 | ≥ 6.00
14 | CC(C)CCn1cc(-c2ccc(O)c(N3CC(=O)NS3(=O)=O)c2F)c(=O)[nH]1 [Compound 444, 5-(2-fluoro-6-hydroxy-3-(1-isopentyl-3-oxo-2,3-dihydro-1H-pyrazol-4-yl)phenyl)-1,2,5-thiadiazolidin-3-one 1,1-dioxide] | ≥ 6.00 | ≥ 6.00
15 | COc1cccc(-n2cnc(-c3ccc(O)c(N4CC(=O)NS4(=O)=O)c3F)c2)c1 [Compound 445, 5-(2-fluoro-6-hydroxy-3-(1-(3-methoxyphenyl)-1H-imidazol-4-yl)phenyl)-1,2,5-thiadiazolidin-3-one 1,1-dioxide] | ≥ 6.00 | ≥ 6.00

The next lines start with the values.

Row | pIC50 [1] | pIC50 [2] | SMILES
16 | ≥ 6.00 | ≥ 6.00 | O=C1CN(c2c(O)ccc(-c3cnn(C4CC4(F)F)c3)c2F)S(=O)(=O)N1 (centres unmarked) [Compound 424, 5-(3-(1-(2,2-difluorocyclopropyl)-1H-pyrazol-4-yl)-2-fluoro-6-hydroxyphenyl)-1,2,5-thiadiazolidin-3-one 1,1-dioxide]
17 | ≥ 6.00 | ≥ 6.00 | Cc1nsc(-c2ccc(O)c(N3CC(=O)NS3(=O)=O)c2F)n1 [Compound 425, 5-(2-fluoro-6-hydroxy-3-(3-methyl-1,2,4-thiadiazol-5-yl)phenyl)-1,2,5-thiadiazolidin-3-one 1,1-dioxide]
18 | ≥ 6.00 | ≥ 6.00 | CO[C@H]1CC[C@H](n2cc(-c3ccc(O)c(N4CC(=O)NS4(=O)=O)c3F)cn2)CC1 [Compound 426, 5-(2-fluoro-6-hydroxy-3-(1-((1r,4r)-4-methoxycyclohexyl)-1H-pyrazol-4-yl)phenyl)-1,2,5-thiadiazolidin-3-one 1,1-dioxide]
19 | ≥ 6.00 | ≥ 6.00 | N#Cc1ccc(-n2cnc(-c3ccc(O)c(N4CC(=O)NS4(=O)=O)c3F)c2)cc1 [Compound 427, 4-(4-(3-(1,1-dioxido-4-oxo-1,2,5-thiadiazolidin-2-yl)-2-fluoro-4-hydroxyphenyl)-1H-imidazol-1-yl)benzonitrile]
20 | ≥ 6.00 | ≥ 6.00 | COc1cc(-c2ccc(O)c(N3CC(=O)NS3(=O)=O)c2F)[nH]n1 [Compound 428, 5-(2-fluoro-6-hydroxy-3-(3-methoxy-1H-pyrazol-5-yl)phenyl)-1,2,5-thiadiazolidin-3-one 1,1-dioxide]
21 | ≥ 6.00 | ≥ 6.00 | O=C1CN(c2c(O)ccc(-c3cc(C4CC4)n(C4CC4)n3)c2F)S(=O)(=O)N1 [Compound 429, 5-(3-(1,5-dicyclopropyl-1H-pyrazol-3-yl)-2-fluoro-6-hydroxyphenyl)-1,2,5-thiadiazolidin-3-one 1,1-dioxide]
22 | ≥ 6.00 | ≥ 6.00 | CN(C)C1(Cn2cc(-c3ccc(O)c(N4CC(=O)NS4(=O)=O)c3F)cn2)CCC1 [Compound 430, 5-(3-(1-((1-(dimethylamino)cyclobutyl)methyl)-1H-pyrazol-4-yl)-2-fluoro-6-hydroxyphenyl)-1,2,5-thiadiazolidin-3-one 1,1-dioxide]
